Laboratory results taken from PMC11661381, “Covalent-fragment screening identifies selective inhibitors of multiple Staphylococcus aureus serine hydrolases important for growth and biofilm formation” (Research Square, 2024).

Experiments:
[1] = tested on: Pseudomonas aeruginosa; assay: Bacterial growth inhibition assay, P. aeruginosa; type: cell-based
Method: (§1) Bacteria were streaked from glycerol stocks onto agar plates and grown overnight at 37°C. A single colony was inoculated in either Tryptic Soy Broth (TSB; Sigma-Aldrich, St. Louis, MO; used for most species) or Bacto Brain Heart Infusion (BHI; Becton, Dickinson, and Company, Franklin Lakes, NJ; used for L. monocytogenes and S. pyogenes) and grown at 37°C shaking until mid-exponential phase (OD600 = 0.5), then diluted 1:10 in cation-adjusted Mueller Hinton Broth (MHB2, Millipore Sigma, Bedford, MA; used for most species) or BHI (for L. monocytogenes and S. pyogenes). 15 μl of this dilution was added to 135 μl of MHB2 or BHI in a flat-bottom clear 96-well plate for a starting inoculum of ~ 5 × 10^5 CFU/ml.
(§2) For bacterial growth inhibition assay, wild-type S. aureus and transposon mutants (fphB::Tn, fphE::Tn and fphH::Tn) were grown with compounds at final concentrations ranging from 1–100 μM and compared to growth in media with an equivalent percentage of DMSO. […] All growth curves were repeated at least twice and analyzed in GraphPad Prism 10.0 software. […] The cultures were incubated overnight at 37°C, 5% CO2 before their optical density was read. The EC50 of the antibiotics against the bacteria in the presence or absence of N34 were determined by fitting the normalized data into a four-parameter logistic model in GraphPad Prism 10.0 software.

[2] = tested on: S. aureus wild type and fph transposon mutants; assay: Bacterial growth inhibition assay, S. aureus; type: cell-based, Staphylococcus aureus; settings: 1–100 μM
Method: as §1
(§3) For bacterial growth inhibition assay, wild-type S. aureus and transposon mutants (fphB::Tn, fphE::Tn and fphH::Tn) were grown with compounds at final concentrations ranging from 1–100 μM and compared to growth in media with an equivalent percentage of DMSO. Each condition was plated as technical duplicates. The plate was incubated at 37°C with shaking every 15 minutes followed by measurement of OD600 for 14 hr. All growth curves were repeated at least twice and analyzed in GraphPad Prism 10.0 software. For bacterial resistance analysis, overnight culture of S. aureus Newman was diluted to an OD600 of 0.01 in MHB. This was followed by pretreatment with 20 μM N34 or equivalent DMSO volume as control. The pretreatment was allowed to proceed for 3 hr before initiating treatment with different concentrations of the test antibiotics (Table S5). The cultures were incubated overnight at 37°C, 5% CO2 before their optical density was read. The EC50 of the antibiotics against the bacteria in the presence or absence of N34 were determined by fitting the normalized data into a four-parameter logistic model in GraphPad Prism 10.0 software.

[3] = tested on: Fph enzymes in live S. aureus cells (USA300); assay: Competition of FP-alkyne labeling in live S. aureus cells; type: cell-based, Staphylococcus aureus
Method: (§4) One colony of each of S. aureus wild-type and transposon mutants fphB::Tn, fphE::Tn and fphH::Tn picked from growth on a Tryptic soya agar plate were inoculated in 5 mL of Tryptic soya broth (TSB). The overnight bacterial cultures were spun down at 5,000 g for 10 min and pellet was collected. The pellets were washed twice in 1X PBS buffer and resuspended in the same buffer. Cells were first preincubated with the indicated concentrations of inhibitors for 2hr at 37°C. The cells were washed twice with 1X PBS buffer. The resuspended pellets were incubated with Fluorophosphonate-alkyne (FP-alkyne) for 30 min at 37°C. Cells were washed again twice with 1X PBS buffer and resuspended in with 1X PBS and 0.1% Triton–X and lysed by beat beating at 4°C. Next, lysed cells (20 μL) were mixed with 2.16 μL of freshly prepared click mix (0.5 μL of 50 mM CuSO4 in H2O, 1.16 μL of 100 mM BTTAA in DMSO, and 0.5 μL of N3-Cy5 in DMSO) and 1.16 μL of 300 mM sodium ascorbate solution in H2O and incubated at 37 °C for 30 min. Next step, 20 μL of 4X SDS loading buffer was added in each sample and boiled at 100 °C for 10 min. The processed samples were allowed to cool and analyzed by SDS-PAGE (12%) running at 120 V in an electrophoresis chamber. Cy5 fluorescence was imaged using the Cy5 channel on a Typhoon 9410 Imager (Amersham Biosciences).

[4] = Cytotoxicity assay (CellTiter-Blue); type: cell-based; settings: human; HEK293 cells, 48hr of incubation
[5] = target: T1, rFphH (Staphylococcus aureus, UniProt A0A0H2XJL0); assay: FP-Cy5 active site labeling of recombinant protein, rFphH; type: binding; settings: 500 nM rFphH
T1 construct: otherwise full-length FphE (Uniprot ID Q2FDS6) and FphH (A0A0H2XJL0) proteins; His6 (3C-cleavable, pETNKI-his-3C-LIC vector) (N); made in house; E. coli is inferred from the pET28a-type vector, IPTG induction and LB/kanamycin
T1 sequence (A0A0H2XJL0 1-246): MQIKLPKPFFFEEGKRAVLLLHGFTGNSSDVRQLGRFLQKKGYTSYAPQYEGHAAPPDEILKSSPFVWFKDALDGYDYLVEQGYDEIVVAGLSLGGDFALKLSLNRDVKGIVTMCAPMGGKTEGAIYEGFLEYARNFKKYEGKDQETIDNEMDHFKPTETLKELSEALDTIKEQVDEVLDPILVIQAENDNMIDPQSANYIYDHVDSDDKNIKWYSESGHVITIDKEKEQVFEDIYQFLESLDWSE
Method: (§5) For activity-based protein labeling experiments, 500 nM of rFphB, rFphE and rFphH in 1X PBS and 0.1% Triton–X were preincubated with different concentrations of inhibitors or DMSO for 2hr at room temperature, followed by adding 300 nM of fluorophosphonate (FP) alkyne and incubated for 30 min at room temperature. Next, 20 μL of the reaction volume were mixed with 2.16 μL of freshly prepared click mix (0.5 μL of 50 mM CuSO4 in H2O, 1.16 μL of 100 mM BTTAA in DMSO, and 0.5 μL of N3-Cy5 in DMSO) and 1.16 μL of 300 mM sodium ascorbate solution in H2O. Samples were incubated at 37°C for 30 min, boiled in SDS loading buffer and analyzed by SDS–PAGE. Cy5 fluorescence was imaged using the Cy5 channel on a Typhoon 9410 Imager (Amersham Biosciences).

[6] = tested on: S. aureus Newman; assay: Antibiotic susceptibility after N34 pretreatment; type: cell-based, Staphylococcus aureus; settings: 20 μM N34 pretreatment, then antibiotics; Table S5
Method: The strong antibiofilm activity of the boronic acid compounds argues for their possible use in combination therapy with antibiotics to treat staphylococcal infections. Therefore, we wanted to test if the N34 treatment impacts the susceptibility profile of the S. aureus to antibiotics. To test this, we pretreated bacteria with a sub-inhibitory concentration of N34 (20 μM) for 2 hours at 37°C followed by treatment with selected antibiotics.
as §3, with “This was followed by pretreatment with 20 μM N34 or equivalent DMSO volume as control. The pretreatment was allowed to proceed for 3 hr before initiating treatment with different concentrations of the test antibiotics (Table S5).” left out

[7] = tested on: S. aureus biofilm formation; assay: Crystal violet biofilm inhibition assay; type: cell-based, Staphylococcus aureus; settings: for effect on biofilm formation (in words): wild type S. aureus, 1–100 μM
Method: Overnight cultures of S. aureus (wild-type, transposon mutants and complemented) strains (Table S3) grown in TSB, were subcultured on fresh TSB and grown to OD600 of 0.5. Biofilms were cultured in 96 well plates by transferring 1 μL of the culture to 200 μL of TSB plus 1% glucose with or without the inhibitors and incubated for 16 hours at 37°C without agitation. The inhibitor concentrations ranged from 1, 5, 10, 50 and 100 μM final concentration. Equal volume of DMSO was added as control. The wells were washed to remove the planktonic cells and the plates air-dried before staining with 200μL of 0.1% w/v crystal violet for 10 minutes at room temperature. The wells were washed to remove excess dye and blotted to dry. Each well was filled with 200μL of DMSO for 10 minutes at room temperature to dissolve the dye. The absorbance was measured at 590 nm using Spark multimode microplate reader (TECAN). The data represents n = 3 independent experiments and are expressed as a percentage of the uninhibited wild-type bacteria. All the data are normalized such that 100% represent untreated WT S. aureus. P values were determined using ordinary one-way ANOVA multiple comparisons GraphPad Prism 10.0 software. *P < 0.05, **P < 0.01, ***P < 0.001 and ****P < 0.0001.

[8] = tested on: S. epidermidis; assay: Bacterial growth inhibition assay, S. epidermidis; type: cell-based, Staphylococcus epidermidis
Method: as §1, §2

[9] = tested on: Escherichia coli; assay: Bacterial growth inhibition assay, E. coli; type: cell-based
[10] = tested on: Streptococcus pyogenes; assay: Bacterial growth inhibition assay, S. pyogenes; type: cell-based
Method: as §1, §2

[11] = target: T2, Fph enzymes in live S. aureus cells (USA300) (Staphylococcus aureus, UniProt A0A0H2XJG5); assay: Competition of FP-alkyne labeling in live S. aureus cells; type: cell-based; settings: live cells, increasing concentrations, 120 min
T2 construct: endogenous in cells; host or cells: live S. aureus USA300 (LAC) wild-type cells
T2 sequence (A0A0H2XJG5 1-322): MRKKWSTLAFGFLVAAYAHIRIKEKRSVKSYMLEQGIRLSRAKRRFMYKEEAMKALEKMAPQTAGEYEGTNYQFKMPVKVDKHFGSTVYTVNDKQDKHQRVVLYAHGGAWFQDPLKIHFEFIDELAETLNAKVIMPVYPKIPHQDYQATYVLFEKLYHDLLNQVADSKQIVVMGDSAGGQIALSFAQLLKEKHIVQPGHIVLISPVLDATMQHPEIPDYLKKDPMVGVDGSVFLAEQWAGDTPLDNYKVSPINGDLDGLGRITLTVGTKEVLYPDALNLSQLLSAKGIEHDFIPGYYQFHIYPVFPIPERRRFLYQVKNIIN
Method: as §4

[12] = target: T3, rFphB (Staphylococcus aureus, UniProt A0A0H2XJG5); assay: FP-Cy5 active site labeling competition of recombinant protein, rFphB; type: binding
T3 construct: made in house
T3 sequence (A0A0H2XJG5 1-322): T2 sequence (A0A0H2XJG5 1-322)
Method: as §5

[13] = tested on: HEK293 cells; assay: Cytotoxicity assay (CellTiter-Blue); type: cell-based; settings: mammalian cells
[14] = target: T3, rFphB; assay: Intact protein LC-MS of rFphB with inhibitor; type: binding; settings: rFphB:X20 1:10
Method: Next, 10 μL of the labeled sample was injected and analyzed by LC-MS. For LC-MS conditions, 95% solvent A (0.1% formic acid in LC-MS grade water), 5% solvent B (0.1% formic acid in LC-MS grade acetonitrile) at 0.6 mL/min was used for 2 min to remove excess of salts into waste before a linear 6-minute gradient from 80% solvent A (20% solvent B) to 20% solvent A (80% solvent B), followed by a one-minute 95% solvent A (5% solvent B). Protein labeling efficiency was quantified by UV. The acquired mass of protein was deconvoluted using the deconvolution software in Agilent Bioanalysis Software package.

SMILES | growth defect (in words) [1] | effect on S. aureus growth (in words) [2] | competition of FP labeling in live cells (in words) ([3]; 100 μM compound, live S. aureus cells) | concentration giving partial inhibition of FphE and other lower molecular weight Fph proteins ([3]; live cells, doses 5–100 μM, 120 min preincubation) [µM] | CC50 at 48 h [4] [µM] | competition of FP-Cy5 labeling of rFphH (in words) [5] | impact of N34 pretreatment on antibiotic susceptibility (in words) [6] | effect on biofilm formation in transposon mutants (in words) ([7]; fphH or fphE transposon mutant) | effect on biofilm formation (in words) [7] | growth inhibition (in words) [8] | growth defect (in words) [9] | growth inhibition (in words) [10] | competition of FP-alkyne labeling of native FphB (in words) [11] | competition of FP-Cy5 labeling of rFphB (in words) [12] | off-target effects in mammalian cells (in words) [13] | reduction of biofilms ([7]; WT cells, highest concentrations) [%] | reduction of biofilms ([7]; fphB mutant) [%] | adduct formation on rFphB (in words) [14]
OB(O)c1ccc(C(F)(F)F)s1 [N34] | no significant growth defect | both the fphE and fphH mutants grew slower than wild type | blocked FP labeling of FphH | ≥ 50 | > 200 | dose-dependently blocked labeling of rFphH | does not impact resistance or susceptibility profiles of the antibiotics | not further increased by addition of even 100 μM concentrations of N34 | most pronounced effects | inhibited only by the FphH inhibitor N34 | no significant growth defect | no growth inhibition | – | – | – | – | – | –
COc1cc2c(cc1S(=O)(=O)F)C(=O)NCCC2 [X20] | – | minimal effect on planktonic growth | – | – | – | – | – | – | significant inhibition of biofilm formation | – | – | – | retains both its potency and selectivity towards the natively expressed FphB | dose-dependently blocked labeling of rFphB | did not show any off-target effects in mammalian cells | 60 | 40 | a single X20 adduct formed
